This is an account of results in PubChem BioAssay (NCI).

Assay in all cases: NCI tumour cell line growth inhibition, 48 h
Test [1] has as its system CAKI-1 renal.
Test [2] deals with COLO 205 colon.
Test [3] has as its system EKVX NSCLC.
Test [4] has as its system HOP-92 NSCLC.
In test [5] the test system is NCI-H23 lung.
The subject of test [6] is RXF 393 renal.
For test [7], the system named is SK-MEL-28 melanoma.
In test [8] the test system is U251 CNS.

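A five-concentration, 48-hour dose response in 96-well plates underlies each endpoint, interpolated linearly between surrounding concentrations. GI50 marks 50% less growth. TGI is the concentration that stops growth completely.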 A value given as a limit tells only on which side of the number the result lay.

Consider `CCCCCCCCCCCCOC1C(CNC(=O)C2OC3OC(C)(C)OC3C2NC(=O)CN2CCN(c3ccc(OC)cc3)CC2)OC2OC(C)(C)OC21` (centres undefined), for which the GI50 in test [1] was 12.1 µM; in test [2], 2.26 µM; in test [3], 5.46 µM; in test [4], 3.17 µM; in test [5] it was 9.68 µM; in test [6], 2.1 µM. In addition, the GI50 in test [7] is 5.86 µM; in test [8], 4.74 µM. For the same compound, the TGI was determined as 24.5 µM in test [1]; 4.82 µM in test [2]; 17 µM in test [3]; 12.2 µM in test [4]; 32 µM in test [5]; 4.44 µM in test [6]. The results for the TGI in test [7] and in test [8] were 23.3 µM and 15.8 µM, respectively.

Consider `COC(=O)c1oc2c(C(=O)/C=C/c3ccc(OC)cc3)c(OCCN(C)C)ccc2c1C`, for which the GI50 in test [1] was 6.95 µM; in test [2] it was 4.59 µM; in test [3] it was 6.4 µM; in test [4], 5.91 µM; in test [5], 9.76 µM; in test [6], 3.91 µM. Also, the results for the GI50 in test [7] and in test [8] were 7.73 µM and 5.72 µM, respectively. For the same compound, the TGI in test [1] was 20.2 µM; in test [2], 19.3 µM; in test [3], 19 µM; in test [4], 19.8 µM; in test [5] it was 26.1 µM; in test [6], 14.6 µM. For the same compound, the TGI in test [7] was determined as 20.9 µM; in test [8], 19.3 µM.

As to `CCOc1ccn(-c2ccc(F)cc2)c(=O)c1C(=O)Nc1ccc(Oc2ccnc(N)c2Cl)c(F)c1`, the GI50 in test [1] is 7.57 µM; in test [2], 2.54 µM; in test [3], 31.3 µM; in test [4], 0.801 µM; in test [5], 10.4 µM; in test [6], 7.06 µM. In addition, the GI50 is 6.7 µM in test [7] and 26 µM in test [8]. In addition, the TGI in test [1] was 56.4 µM; in test [2], 5.57 µM; in test [3] it was over 100 µM; in test [4], 12.3 µM; in test [5] it was over 100 µM; in test [6] it was 36.8 µM. The TGI is 59.1 µM in test [7] and over 100 µM in test [8].

With `Cn1c2c(c3c(Cl)nncc31)Cc1ccccc1-2`, the GI50 in test [1] is 16.9 µM; in test [2], 15.3 µM; in test [3] it was 5.79 µM; in test [4], 9.47 µM; in test [5] it was 18.7 µM; in test [6], 24.5 µM. Further, the GI50 in test [7] is 30.2 µM; in test [8] it was 20 µM. Also, the TGI in test [1] is 67.2 µM; in test [2], 50.2 µM; in test [3], 44.3 µM; in test [4] it was 43 µM; in test [5], 49 µM; in test [6] it was 80.7 µM. The TGI in test [7] and in test [8] was over 100 µM throughout.

For the compound `Cc1cc(Nc2cc(N3CCN(C)CC3)nc(/C=C/c3ccccc3)n2)n[nH]1`, the GI50 in test [1] is 0.223 µM; in test [2], 0.44 µM; in test [3] it was 1.21 µM; in test [4], 0.476 µM; in test [5], 1.14 µM; in test [6], 0.246 µM. The GI50 in test [7] was 1.41 µM; in test [8], 0.883 µM. In addition, the TGI was over 5.38 µM in test [1]; over 2.03 µM in test [2]; over 7.24 µM in test [3]; 1.95 µM in test [4]; over 5.23 µM in test [5]; 1.04 µM in test [6]. Further, the figures for the TGI in test [7] and in test [8] were over 5.48 µM and over 6.76 µM, respectively.

With `CC[C@@H](C)/C=C(C)/C=C/C(=O)c1c(O)c(-c2ccc(O)cc2)cn(O)c1=O`, the GI50 is 0.29 µM in test [1]; 7.19 µM in test [2]; 1.6 µM in test [3]; 0.137 µM in test [4]; 0.562 µM in test [5]; 0.22 µM in test [6]. Besides, the GI50 in test [7] was 0.674 µM; in test [8] it was 0.374 µM. The TGI in test [1] is 1.55 µM; in test [2], 20.6 µM; in test [3], 13.1 µM; in test [4], 1.86 µM; in test [5], 9.93 µM; in test [6], 2.25 µM. Further, the TGI in test [7] was determined as 19.2 µM; in test [8] it was 11.2 µM.

`CC(=O)N1N=C(c2ccc(Nc3nc(Nc4ccc(F)cc4)nc(Nc4ccc(F)cc4)n3)cc2)CC1c1ccc(N(C)C)cc1` (centres undefined): the GI50 in test [1] was 15.6 µM; in test [2], 5.73 µM; in test [3], 15.7 µM; in test [5] it was 4.1 µM; in test [6], 1.56 µM; in test [7] it was 4.33 µM. Further, the GI50 in test [8] is 12.6 µM. Also, the TGI is 93.1 µM in test [1]; 22.6 µM in test [2]; over 100 µM in test [3]; 0.488 µM in test [4]; 26.7 µM in test [5]; 5.6 µM in test [6]. For the same compound, the TGI in test [7] was determined as 19.3 µM; in test [8], 25.2 µM.

For `NS(=O)(=O)c1cc(C(=O)O)c(O)c2ccccc12`, the TGI in test [1], in test [2], in test [3], in test [4], in test [5] and in test [6] was over 100 µM each time. The TGI in test [7] and in test [8] was over 100 µM in each case.

In the case of `Cc1cc(Nc2nc(N[C@@H](C)c3ncc(F)cn3)ncc2Cl)n[nH]1`, the GI50 in test [1] is 17.5 µM; in test [2], 17.8 µM; in test [3], 56.8 µM; in test [4], 10.1 µM; in test [5] it was 23.1 µM; in test [6], 5.07 µM. In addition, the GI50 was 38.1 µM in test [7] and 24.5 µM in test [8]. In addition, the TGI was over 100 µM in test [1]; 48.9 µM in test [2]; over 100 µM in test [3]; 42.4 µM in test [4]; over 100 µM in test [5]; 19.9 µM in test [6]. Also, the TGI in test [7] and in test [8] was over 100 µM in each case.

With `Cn1cc(-c2cnn3c(N)c(Br)c(C4CCCNC4)nc23)cn1` (centres undefined), the GI50 in test [1] was 5.43 µM; in test [2], 4.54 µM; in test [3], 10.4 µM; in test [4] it was 5.51 µM; in test [5] it was 0.546 µM; in test [6], 0.257 µM. In addition, the GI50 in test [7] is 24.3 µM; in test [8], 20.2 µM. Besides, the TGI in test [1] was over 38.5 µM; in test [2], 19.8 µM; in test [3], 70 µM; in test [4], over 68.5 µM; in test [5] it was over 81.6 µM; in test [6] it was 0.799 µM. The TGI in test [7] and in test [8] was over 100 µM in each case.

Consider `CCCCCC/C=C\CCCCCCCCCC1=C(CN2CCN(C)CC2)C(=O)C=C(OC)C1=O`, for which the TGI in test [1] was found to be 7.03 µM; in test [2], 3.37 µM; in test [3] it was 27.9 µM; in test [4], 6.26 µM; in test [5], 15.4 µM; in test [6], 6.72 µM. The TGI was 28.2 µM in test [7] and 15 µM in test [8].

Take `CCN(Cc1cccc(Cl)c1)c1ccc(CO)c(Cl)c1`: the GI50 was 0.724 µM in test [1]; 2.43 µM in test [2]; 12.4 µM in test [3]; 1.29 µM in test [4]; 7.51 µM in test [5]; 4.67 µM in test [6]. The GI50 is 14.5 µM in test [7] and 1.09 µM in test [8]. Also, the TGI in test [1] amounted to 10.1 µM; in test [2] it was 7.53 µM; in test [3] it was 27 µM; in test [4] it was 10.7 µM; in test [5] it was 23.7 µM; in test [6], 19.8 µM. Also, the TGI in test [7] is 28.7 µM; in test [8], 14.6 µM.

In the case of `C#CCN(c1ccc(C(=O)N[C@@H](CCC(=O)N[C@H](CCC(=O)O)C(=O)O)C(=O)O)cc1)C1CCc2cc3nc(CO)[nH]c(=O)c3cc21` (some centres undefined), the GI50 was 6.13 µM in test [1]; 13.8 µM in test [2]; over 100 µM in test [3]; over 53.4 µM in test [4]; 49.1 µM in test [5]; 63.8 µM in test [6]. Besides, the GI50 was over 100 µM in test [7] and over 78.4 µM in test [8]. Besides, the TGI in test [1], in test [2], in test [3], in test [4], in test [5] and in test [6] was over 100 µM in each case. For the same compound, the TGI in test [7] and in test [8] was over 100 µM each time.

Consider `O=C1O/C(=C/c2ccccc2)C(c2ccccc2)=C1O`, for which the TGI in test [1] was over 100 µM; in test [2], over 100 µM; in test [3], over 100 µM; in test [4], over 100 µM; in test [5] it was 44.7 µM; in test [6], 70.3 µM. Also, the TGI was over 100 µM in test [7] and 82.7 µM in test [8].
